Marks after values point to notes of the source that are not given here.
Columns and labels:
[1] = system: Systemic Inflammatory Response Syndrome (SIRS): Intravenous Lipopolysaccharide Stimulation; assay: Animal model for SIRS: continuous intravenous LPS infusion in rats (Method 2); format: in vivo
Description: Animal Model for Systemic Inflammatory Response Syndrome (SIRS): Intravenous Lipopolysaccharide Stimulation (Modified According to Aoki et al. Drug Res. 50: 809; 2000 and Yamazaki et al. Blood Coag. Fibrinol. 10: 321; 1999)
Rats (male, approx. 300 g CrlGlxBrlHan:Wi) were anaesthetised with pentobarbital (60 mg/kg i.p.). To maintain the anaesthetic a pentobarbital drip was set up (22.5 mg/kg/h i.p.). The left jugular vein was cannulated for administration of the substance and the right jugular vein was cannulated for administering the LPS. LPS was given as a continuous infusion for 4 hours (lipopolysaccharide of E. coli serotype 0127:B8 Sigma L-3129 7.5 mg/kg/h). (R)-2-(4-amidinophenylaminomethyl)-1-methyl-5-[1-(carboxymethylamino)-1-(pyrrolidinocarbonyl)-ethyl]-benzimidazole (0.1 mg/kg/h) was administered as a continuous infusion (100 μg/kg/h) one hour after the start of the LPS infusion with a total duration of 3 hours. In order to determine the inflammation parameters, blood was taken from the abdominal artery after a total test period of four hours. From the blood samples the TAT complex (thrombin-antithrombin), interleukin-1β (IL-1β), interleukin-6 (IL-6) and the tumour necrosis factor alpha (TNF-alpha) were determined by ELISA as parameters of a systemic inflammatory reaction. Alanine-aminotransferase (ALT) and creatinin served as enzyme parameters for organ damage to the liver and kidneys.

[2] = system: Systemic Inflammatory Response Syndrome (SIRS): Intravenous Lipopolysaccharide Stimulation; assay: Animal model for SIRS: intravenous LPS bolus stimulation in rats (Method 1); format: in vivo; conditions: for IL-6 / TAT: rat blood, ELISA
Description: Animal Model for Systemic Inflammatory Response Syndrome (SIRS): Intravenous Lipopolysaccharide Stimulation (Modified According to Isobe et al. Circulation 2001; 104: 1171-1175)
Rats (male, approx. 300 g CrlGlxBrlHan:Wi) were anaesthetised with pentobarbital (60 mg/kg i.p.). To maintain the anaesthetic a pentobarbital drip was set up (22.5 mg/kg/h i.p.). The carotid artery was cannulated for taking blood samples, the left jugular vein was cannulated for administration of the substance and the right jugular vein was cannulated for administering the LPS. The administration of (R)-2-[…]-5-[1-(carboxymethylamino)-1-(pyrrolidinocarbonyl)-ethyl]-benzimidazole (0.1 mg/kg/h) was started at time t=−60 min as a continuous drip and maintained until the end of the experiment. One hour after the start of the infusion of the substance, a single bolus of LPS was administered (lipopolysaccharide of E. coli serotype 0127:B8 Sigma L-3129 5 mg/kg i.v. bolus) at time t=0 min. In order to determine the coagulation and inflammation parameters, blood was taken via the arterial cannulae at times a) before the infusion of placebo or (R)-2-(4-amidinophenylaminomethyl)-1-methyl-5-[1-(carboxymethylamino)-1-(pyrrolidinocarbonyl)-ethyl]-benzimidazole (−60 minutes), b) before administration of the LPS bolus (0 minutes) and c) 240 minutes after the administration of LPS. From the blood samples the TAT complex (thrombin-antithrombin) and interleukin-6 (IL-6) were determined by ELISA as parameters of a systemic inflammatory reaction.

[3] = LPS 7.5 mg/kg/h × 4 h + 100 μg/kg/h infusion from 1 h after LPS start for 3 h, blood after 4 h, mean ± standard deviation
[4] = result in words, continuous LPS infusion, 0.1 mg/kg/h
[5] = 0 min (before LPS bolus, 1 h after start of infusion), active substance 100 μg/kg/h
[6] = +240 min after LPS 5 mg/kg i.v. bolus, active substance 100 μg/kg/h
[7] = result in words, LPS bolus, 0.1 mg/kg/h
[8] = −60 min (before start of infusion), LPS + active substance 100 μg/kg/h continuous drip

With `Cn1c(CNc2ccc(C(=N)N)cc2)nc2cc([C@@](C)(NCC(=O)O)C(=O)N3CCCC3)ccc21` [BIBT 986, (R)-2-(4-amidinophenylaminomethyl)-1-methyl-5-[1-(carboxymethylamino)-1-(pyrrolidinocarbonyl)-ethyl]-benzimidazole] the IL-1β [1, 3] was 4036 ± 1000 pg/mL, the IL-6 [1, 3] was 89579 ± 10069 pg/mL and the TNF-alpha [1, 3] was 1003 ± 292 pg/mL. The creatinin ([1]; kidney damage marker, LPS 7.5 mg/kg/h × 4 h + 100 μg/kg/h infusion for 3 h, blood after 4 h, mean ± standard deviation) was 40.1 ± 1.8 µmol/L, the ALT ([1]; liver damage marker, LPS 7.5 mg/kg/h × 4 h + 100 μg/kg/h infusion for 3 h, blood after 4 h, mean ± standard deviation) was 44.2 ± 7.1 U/ml and the “ALT versus untreated control animals” value [1, 4] was “not significantly different from untreated control animals”. The “TAT complex versus LPS-treated animals” value [1, 4] was “significant lowering”, the “creatinin versus untreated control animals” value [1, 4] was “not significantly different from untreated control animals” and the “plasma levels of IL-1β versus LPS-treated animals” value [1, 4] was “significant (p<0.02) lowering”. For the same compound, the “plasma levels of IL-6 versus LPS-treated animals” value [1, 4] was “significant (p<0.02) lowering”, the “plasma levels of TNF alpha versus LPS-treated animals” value [1, 4] was “significant (p<0.02) lowering” and the IL-6 [2, 5] was 0.143 ± 0.083 ng/mL. For the same compound, the TAT [2, 5] was 2.21 ± 0.79 ng/mL, the IL-6 [2, 6] was 43.454 +/− 2.975 * ng/ml and the TAT [2, 6] was 6.52 +/− 1.33 * ng/ml. The “plasma levels of IL-6 versus untreated LPS animals” value [2, 7] was “significant (p<0.02) reduction”, the “plasma levels of the TAT complex versus untreated LPS animals” value [2, 7] was “significantly lower than in the untreated LPS animals (p<0.02) and were within the control range” and the IL-6 [2, 8] was 0.139 ± 0.086 ng/mL. The TAT [2, 8] was 2.33 ± 0.89 ng/mL.

Reference: patent US20090022686A1, “PHARMACEUTICAL COMPOSITIONS FOR THE TREATMENT OF SYSTEMIC INFLAMMATORY RESPONSE SYNDROME” (Boehringer Ingelheim Pharma GmbH & Co. KG, priority 2002, published 2009)
